Results reported in article PMC10721329, “Quisinostat is a brain-penetrant radiosensitizer in glioblastoma” (JCI Insight, 2023).
Values joined by “and” are separate entries in the source; they are usually repeats but may differ in a detail not shown here. Equal entries are not always repeated. Where two headings read alike, the source gives them in different places.

Assays:
[1] = system: histone H3 acetylation (H3K9/14ac); experiment: H3K9/14ac immunoblot of normal brain tissue; format: in vivo, athymic nude mice; settings: QST 10 mg/kg IP MWF 2 weeks, individual mice
Procedure: Insufficient drug exposure in the brain is a major hurdle in the treatment of brain tumors. […] On the last treatment day, blood and intact brains were harvested 2 hours after dosing with QST (Figure 6E). […] Each brain hemisphere was processed separately to perform matched PK and PD analyses from the same animal. […] For PD analyses, we homogenized entire hemispheres to obtain whole-tissue protein lysates from each mouse and assessed changes in histone H3 acetylation levels using immunoblotting.
Cellular protein from cultured cells was homogenized in radioimmunoprecipitation assay (RIPA) lysis buffer containing protease and phosphatase inhibitors (ThermoFisher Scientific), rotated at 4 °C for 20 minutes and then centrifuged at 15,000 rpm for 10 minutes at 4 °C. For histone extractions, benzonase (0.1 U/μL) was added in RIPA buffer (Millipore-Sigma, 70746-4). Protein concentrations from whole-cell extracts were determined using the Bradford Protein Assay (ThermoFisher Scientific). Equal amounts of protein (10-40 μg/lane) were loaded onto 10% or 12.5% sodium dodecyl sulfate–polyacrylamide gel electrophoresis gels and transferred to a polyvinylidene fluoride membrane (Millipore-Sigma). […]

[2] = Total and unbound QST in tumor and contralateral brain at survival end point, orthotopic GB126 PDX; format: in vivo; settings: for UNBOUND [QST], Brain / UNBOUND [QST], Plasma / UNBOUND [QST], Tumor: individual mice; for concentration at 3 h: athymic nude, mouse
Procedure: All mice included in the survival study were processed for end-point PK and PD analyses once moribund. Plasma, tumor, and contralateral brain tissues were harvested 3 hours after dosing with 10 mg/kg QST, allowing for direct comparison of long-term treatment with the PK-PD data collected from acute (1-week) treatment with QST or combination therapy (Figure 8A). […] There were no significant differences in total or unbound drug concentrations in tumor or brain tissue between the monotherapy or combination therapy cohorts (Figure 8, E and F). Immunoblot analysis of dissected tumor samples confirmed that QST induced substantial histone H3 hyperacetylation in brain tumors, compared with untreated animals, consistent with an in vivo on-target effect (Figure 9, A and B).
QST concentrations in specimens were measured using reverse-phase LC on the AB SCIEX QTRAP6500+ LC-MS/MS system by operating electrospray in the positive ion mode. For liquid chromatographic separation, gradient elution was performed using a Phenomenex Kinetex F5 100 Å column (100 × 2.1 mm, 2.6 μm). The initial composition of the mobile phase was 70% phase A (0.1% formic acid in water) and 30% phase B (0.1% formic acid in 1:1 acetonitrile/methanol) with a 0.35 mL/min flow rate. Gradient elution was achieved as follows: mobile phase (B) was maintained at 30% from 0 to 0.3 minutes, increased to 95% from 0.3 to 0.8 minutes, maintained at 95% from 0.8 to 2.5 minutes, and decreased to 30% from 2.5 to 2.8 minutes. The total run time was 3.5 minutes. The internal standard used in this study was D8-infigratinib. The retention times for QST and D8-infigratinib were 1.6 and 1.8 minutes, respectively. Mass-to-charge ratio transitions were as follows: 395.20 → 144.00 (QST) and 568.08 → 321.00 (D8-infigratinib). LC-MS/MS analysis was performed using an Analyst 1.7 Chromatographic Data System. See Supplemental Methods for detailed PK experiments.
Gy on MWF for a total of 6 Gy in the first week of treatment. Treatment groups included vehicle (50% PEG-3000), QST (10 mg/kg) alone, 6 Gy whole-brain IR treatment with vehicle, and 6 Gy whole-brain IR treatment with 10 mg/kg QST. QST was administered to mice through intraperitoneal injections two hours prior to whole-brain radiation treatment. Upon completion of the radiation regimen, IR-treated mice subsequently received QST or vehicle alone for the rest of the experiment. Tumor growth and treatment response was monitored by IVIS bioluminescence […]
once per week. […]
Tissue from the hemisphere contralateral to the tumor was also collected as a normal brain/nontumor reference sample. For PK analyses, the mice were anesthetized with isoflurane, and at least 300 μL of blood was drawn from the right ventricle of the heart. The blood was collected in tubes containing 10 μL of 0.1 M KOH in EDTA to prevent blood coagulation. Blood samples were immediately centrifuged at 3000 rpm for 10 minutes at 4 °C to allow separation of plasma. After collection of the blood, the tumor was dissected out of the brain and flash -frozen.
Both plasma and erythrocytes were flash-frozen for subsequent analysis. […]
vortex-mixed for 10 s and centrifuged at 12000 g at 4 °C for 10 min. A 100-µL aliquot of the supernatant was transferred to an autosampler vial, and 5 µL was injected into the LC-MS/MS system for analysis. Whenever necessary, appropriate dilutions were made to accommodate the analysis of small volume samples.
Brain and Brain Tumor Sample Preparation
Normal brain and brain tumor tissue homogenates were prepared by 1:4 (mass/volume) ratio with PBS. Samples were homogenized under 6.00 m/s speed for 40 seconds with 3 cycles by Bead Ruptor Elite homogenizer (Omni International). Plasma was used as a surrogate matrix for brain/tumor homogenate. Brain homogenate samples from in vivo studies were prepared as described for plasma samples. Analyte and IS were extracted by protein precipitation with methanol containing IS. After centrifugation at 12000 rpm for 10 minutes at 4 °C, 5 µL of […]

HDAC2 = system: HDAC2; design: method as in PMID 32608981; settings: cited from earlier work

Cn1cc(CNCC2CCN(c3ncc(C(=O)NO)cn3)CC2)c2ccccc21 [QST, quisinostat]
UNBOUND [QST], Brain ([2]; Combination (QST + IR) cohort): 3.62 nM and 1.48 nM and 2.18 nM
UNBOUND [QST], Plasma ([2]; Combination (QST + IR) cohort): 158.39 nM and 19.58 nM and 43.86 nM
UNBOUND [QST], Tumor ([2]; Combination (QST + IR) cohort): 66.7 nM and 35.51 nM and 128.5 nM and 21.89 nM and 23.43 nM
UNBOUND [QST], Brain ([2]; QST cohort): 1.049 nM and 4.404 nM and 6.584 nM and 1.529 nM
UNBOUND [QST], Plasma ([2]; QST cohort): 35.734 nM and 100.413 nM and 74.395 nM and 209.24 nM
UNBOUND [QST], Tumor ([2]; QST cohort): 93.34 nM and 77.02 nM and 33.36 nM and 81.88 nM
concentration at 3 h ([2]; brain (contralateral to tumor), intraperitoneal, 10 mg/kg, Combo cohort, mean, read-out: Total QST, Brain, Mean): 48.5 nM
concentration at 3 h ([2]; brain (contralateral to tumor), intraperitoneal, 10 mg/kg, Combo cohort, mean, read-out: Unbound QST, Brain, Mean): 2.42 nM
concentration at 3 h ([2]; brain (contralateral to tumor), intraperitoneal, 10 mg/kg, QST cohort, mean, read-out: Total QST, Brain, Mean): 67.8 nM
concentration at 3 h ([2]; brain (contralateral to tumor), intraperitoneal, 10 mg/kg, QST cohort, mean, read-out: Unbound QST, Brain, Mean): 3.39 nM
concentration at 3 h ([2]; in vivo, orthotopic GB126, end point (moribund), 3 hours after 10 mg/kg, read-out: unbound QST in tumors, mean): 71.4 nM
concentration at 3 h ([2]; peritumoral (contralateral) brain tissue, intraperitoneal, 10 mg/kg, orthotopic GB126, end point (moribund), 3 hours after 10 mg/kg, read-out: unbound QST in peritumoral brain tissue, mean): 3.4 nM
concentration at 3 h ([2]; plasma, intraperitoneal, 10 mg/kg, Combo cohort, mean, read-out: Total QST, Plasma, Mean): 141 nM
concentration at 3 h ([2]; plasma, intraperitoneal, 10 mg/kg, Combo cohort, mean, read-out: Unbound QST, Plasma, Mean): 55.7 nM
concentration at 3 h ([2]; plasma, intraperitoneal, 10 mg/kg, QST cohort, mean, read-out: Total QST, Plasma, Mean): 265 nM
concentration at 3 h ([2]; plasma, intraperitoneal, 10 mg/kg, QST cohort, mean, read-out: Unbound QST, Plasma, Mean): 105 nM
concentration at 3 h ([2]; tumor, intraperitoneal, 10 mg/kg, Combo cohort, mean, read-out: Total QST, Tumor, Mean): 1100 nM
concentration at 3 h ([2]; tumor, intraperitoneal, 10 mg/kg, Combo cohort, mean, read-out: Unbound QST, Tumor, Mean): 55.2 nM
concentration at 3 h ([2]; tumor, intraperitoneal, 10 mg/kg, QST cohort, mean, read-out: Total QST, Tumor, Mean): 1430 nM
concentration at 3 h ([2]; tumor, intraperitoneal, 10 mg/kg, QST cohort, mean, read-out: Unbound QST, Tumor, Mean): 71.4 nM
